{"source": "patent US6559339B1", "about": "“Method for crystallizing carboxylic acid” (Rhodia Fiber & Resin Intermediates, priority 1998, dated 2003)", "test": "heating test: absorbance at 454 nm of ammonium adipate solutions after heating the adipic acid batches", "assay_type": "physicochemical", "settings": "50 g heated to 215° C. for 205 min, then placed in 415 ml aqueous 5% ammonia solution, reference adipic acid (A) = 1", "experimental": "The adipic acid batches (A) and (B) are subjected to a heating test. This test consists in heating 50 g of each batch to 215° C. for 205 min and then placing each of them in 415 ml of aqueous 5% ammonia solution. The absorbence at 454 nm of the ammonium adipate solutions obtained is then measured.\nThe results below are obtained, expressed as relative absorbences, the reference adipic acid (A) representing the value 1:\nThis test consists in heating 50 g of each batch to 215° C. for 205 min and then placing each of them in 415 ml of aqueous 5% ammonia solution.\nThe absorbance at 454 nm of the ammonium adipate solutions obtained is then measured.\nThe following results are obtained, expressed as relative absorbances, the reference adipic acid (A) representing the value 1: […]"}
{"smiles": "O=C(O)CCCCC(=O)O", "note": "[adipic acid (A), adipic acid, reference compound]", "values": [{"measurement": "Relative absorbance at 454 nm", "result": 1}, {"measurement": "relative absorbence at 454 nm", "result": 1}]}
{"smiles": "O=C(O)CCCCC(=O)O", "note": "[adipic acid (B), adipic acid]", "values": [{"measurement": "relative absorbence at 454 nm", "result": 0.25}]}
{"smiles": "O=C(O)CCCCC(=O)O", "note": "[adipic acid (D), adipic acid]", "values": [{"measurement": "Relative absorbance at 454 nm", "setting": "listed as D", "result": 0.2}]}
{"smiles": "O=C(O)CCCCC(=O)O", "note": "[adipic acid (E), adipic acid]", "values": [{"measurement": "Relative absorbance at 454 nm", "setting": "listed as E", "result": 0.5}]}
{"smiles": "O=C(O)CCCCC(=O)O", "note": "[adipic acid (C), adipic acid]", "values": [{"measurement": "Relative absorbance at 454 nm", "setting": "listed as C", "result": 0.3}]}
